{"source": "paper PMC8333425", "about": "“Discovery of a dual Ras and ARF6 inhibitor from a GPCR endocytosis screen” (Nature Communications, 2021)", "assay_in_all_cases": "KINOMEscan kinase binding assay", "key": {"[1]": {"target": "T1, 384 kinases from the human genome (Homo sapiens, UniProt O95747)", "T1 construct": "purchased Eurofin/DiscoverX", "settings": "kinase OSR1 (Entrez OXSR1)", "how_it_was_run": "(§1)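 A panel of 384 human kinases was profiled by KINOMEscan binding in the presence of 10 µM compound. Kinase–ligand binding was given as percent of DMSO control, averaged from duplicates in a single run, with an S(10) selectivity score.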"}, "[2]": {"target": "T2, 384 kinases from the human genome (Homo sapiens, UniProt P24723)", "T2 construct": "purchased Eurofin/DiscoverX", "T2 sequence (P24723 whole entry)": "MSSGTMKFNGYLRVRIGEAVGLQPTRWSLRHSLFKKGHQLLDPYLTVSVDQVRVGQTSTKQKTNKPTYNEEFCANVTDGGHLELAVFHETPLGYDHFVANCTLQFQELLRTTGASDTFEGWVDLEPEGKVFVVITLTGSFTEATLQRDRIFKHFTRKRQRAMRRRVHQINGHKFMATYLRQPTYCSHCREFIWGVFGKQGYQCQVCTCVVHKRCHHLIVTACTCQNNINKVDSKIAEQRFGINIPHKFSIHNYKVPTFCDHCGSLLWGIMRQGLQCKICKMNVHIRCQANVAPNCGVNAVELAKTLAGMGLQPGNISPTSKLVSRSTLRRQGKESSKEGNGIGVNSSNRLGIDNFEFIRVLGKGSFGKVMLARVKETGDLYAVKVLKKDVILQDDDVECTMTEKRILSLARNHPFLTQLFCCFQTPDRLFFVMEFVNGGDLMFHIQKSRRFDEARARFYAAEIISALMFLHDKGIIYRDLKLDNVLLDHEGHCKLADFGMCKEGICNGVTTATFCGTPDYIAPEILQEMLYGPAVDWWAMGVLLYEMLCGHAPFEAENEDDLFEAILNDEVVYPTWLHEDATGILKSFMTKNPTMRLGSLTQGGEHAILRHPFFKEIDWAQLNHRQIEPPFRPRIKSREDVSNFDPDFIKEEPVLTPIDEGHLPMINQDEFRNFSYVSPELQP", "settings": "kinase PRKCH (Entrez PRKCH)", "how_it_was_run": "as §1"}, "[3]": {"target": "T3, 384 kinases from the human genome (Homo sapiens, UniProt P53355)", "T3 construct": "purchased Eurofin/DiscoverX", "settings": "kinase DAPK1 (Entrez DAPK1)", "how_it_was_run": "as §1"}, "[4]": {"target": "T4, 384 kinases from the human genome (Homo sapiens, UniProt Q15746)", "T4 construct": "purchased Eurofin/DiscoverX", "settings": "kinase MYLK (Entrez MYLK)", "how_it_was_run": "as §1"}, "[5]": {"target": "T5, 384 kinases from the human genome (Homo sapiens, UniProt P53671)", "T5 construct": "purchased Eurofin/DiscoverX", "settings": "kinase LIMK2 (Entrez LIMK2)", "how_it_was_run": "as §1"}, "[6]": {"target": "T6, 384 kinases from the human genome (Homo sapiens, UniProt Q9BX84)", "T6 construct": "purchased Eurofin/DiscoverX", "T6 sequence (Q9BX84 whole entry)": "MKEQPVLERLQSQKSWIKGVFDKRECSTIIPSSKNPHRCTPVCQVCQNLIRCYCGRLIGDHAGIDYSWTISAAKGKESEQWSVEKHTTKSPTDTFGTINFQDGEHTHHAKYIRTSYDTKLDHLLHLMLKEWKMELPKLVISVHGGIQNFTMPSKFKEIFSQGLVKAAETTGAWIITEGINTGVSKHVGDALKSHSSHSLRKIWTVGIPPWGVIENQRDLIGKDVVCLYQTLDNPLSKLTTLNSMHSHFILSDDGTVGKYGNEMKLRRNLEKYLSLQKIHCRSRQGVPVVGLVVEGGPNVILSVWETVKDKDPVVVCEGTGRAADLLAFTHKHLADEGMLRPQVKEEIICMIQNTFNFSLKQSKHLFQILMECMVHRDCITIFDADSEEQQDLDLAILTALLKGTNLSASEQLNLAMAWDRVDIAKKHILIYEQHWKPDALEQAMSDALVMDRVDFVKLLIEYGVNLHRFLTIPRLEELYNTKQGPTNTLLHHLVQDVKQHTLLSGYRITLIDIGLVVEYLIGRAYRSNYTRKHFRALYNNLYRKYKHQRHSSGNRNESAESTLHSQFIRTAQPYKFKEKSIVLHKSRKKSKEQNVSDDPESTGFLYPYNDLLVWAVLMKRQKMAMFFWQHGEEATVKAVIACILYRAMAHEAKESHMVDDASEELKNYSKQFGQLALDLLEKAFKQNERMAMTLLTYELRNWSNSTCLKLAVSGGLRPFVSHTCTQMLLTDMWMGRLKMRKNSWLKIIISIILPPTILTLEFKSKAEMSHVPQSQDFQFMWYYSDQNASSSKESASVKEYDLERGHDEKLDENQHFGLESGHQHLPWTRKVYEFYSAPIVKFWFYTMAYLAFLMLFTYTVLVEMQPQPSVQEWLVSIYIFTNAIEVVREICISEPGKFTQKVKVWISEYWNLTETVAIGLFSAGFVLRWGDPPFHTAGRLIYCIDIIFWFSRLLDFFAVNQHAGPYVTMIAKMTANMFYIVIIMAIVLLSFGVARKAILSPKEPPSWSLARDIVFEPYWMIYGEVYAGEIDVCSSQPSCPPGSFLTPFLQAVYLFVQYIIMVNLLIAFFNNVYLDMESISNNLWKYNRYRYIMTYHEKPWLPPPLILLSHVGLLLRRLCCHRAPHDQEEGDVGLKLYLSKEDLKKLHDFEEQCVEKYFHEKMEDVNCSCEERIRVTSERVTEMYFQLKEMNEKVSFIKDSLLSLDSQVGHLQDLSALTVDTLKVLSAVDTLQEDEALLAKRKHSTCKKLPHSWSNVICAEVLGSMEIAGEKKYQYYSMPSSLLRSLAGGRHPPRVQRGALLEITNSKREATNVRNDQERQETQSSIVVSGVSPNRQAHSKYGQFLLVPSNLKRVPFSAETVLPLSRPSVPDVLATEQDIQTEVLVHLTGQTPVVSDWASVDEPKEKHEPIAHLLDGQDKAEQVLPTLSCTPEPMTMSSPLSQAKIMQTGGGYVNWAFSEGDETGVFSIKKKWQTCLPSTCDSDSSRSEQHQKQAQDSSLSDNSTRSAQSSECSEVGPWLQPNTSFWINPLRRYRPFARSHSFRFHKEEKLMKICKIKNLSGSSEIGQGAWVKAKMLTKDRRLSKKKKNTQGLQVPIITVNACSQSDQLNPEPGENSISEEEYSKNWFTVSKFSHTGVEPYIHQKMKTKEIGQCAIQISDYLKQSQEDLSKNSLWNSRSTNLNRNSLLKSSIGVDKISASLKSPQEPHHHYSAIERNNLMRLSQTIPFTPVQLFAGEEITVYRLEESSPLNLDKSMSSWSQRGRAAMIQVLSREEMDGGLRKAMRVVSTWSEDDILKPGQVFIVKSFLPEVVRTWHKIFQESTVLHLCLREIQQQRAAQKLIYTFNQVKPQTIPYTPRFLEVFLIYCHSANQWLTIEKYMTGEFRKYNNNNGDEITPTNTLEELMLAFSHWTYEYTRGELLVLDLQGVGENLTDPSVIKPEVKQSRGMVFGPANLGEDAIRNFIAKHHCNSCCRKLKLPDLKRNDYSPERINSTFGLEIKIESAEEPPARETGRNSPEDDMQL", "settings": "kinase TRPM6 (Entrez TRPM6)", "how_it_was_run": "as §1"}, "[7]": {"target": "T7, 384 kinases from the human genome (Homo sapiens, UniProt P78356)", "T7 construct": "purchased Eurofin/DiscoverX", "T7 sequence (P78356 whole entry)": "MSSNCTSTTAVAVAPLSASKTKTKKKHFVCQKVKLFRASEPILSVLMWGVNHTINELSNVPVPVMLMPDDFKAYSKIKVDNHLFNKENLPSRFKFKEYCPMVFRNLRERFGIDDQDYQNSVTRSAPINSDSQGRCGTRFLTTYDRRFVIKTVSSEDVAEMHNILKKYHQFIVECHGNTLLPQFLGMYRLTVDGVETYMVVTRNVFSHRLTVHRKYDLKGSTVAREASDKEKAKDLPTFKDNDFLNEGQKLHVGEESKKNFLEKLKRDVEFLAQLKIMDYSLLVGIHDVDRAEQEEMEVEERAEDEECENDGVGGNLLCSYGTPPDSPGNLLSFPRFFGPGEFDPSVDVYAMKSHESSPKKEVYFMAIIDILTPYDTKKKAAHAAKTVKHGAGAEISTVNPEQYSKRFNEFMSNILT", "settings": "kinase PIP5K2B (Entrez PIP4K2B)", "how_it_was_run": "as §1"}, "[8]": {"target": "T8, 384 kinases from the human genome (Homo sapiens, UniProt O15075)", "T8 construct": "purchased Eurofin/DiscoverX", "T8 sequence (O15075 whole entry)": "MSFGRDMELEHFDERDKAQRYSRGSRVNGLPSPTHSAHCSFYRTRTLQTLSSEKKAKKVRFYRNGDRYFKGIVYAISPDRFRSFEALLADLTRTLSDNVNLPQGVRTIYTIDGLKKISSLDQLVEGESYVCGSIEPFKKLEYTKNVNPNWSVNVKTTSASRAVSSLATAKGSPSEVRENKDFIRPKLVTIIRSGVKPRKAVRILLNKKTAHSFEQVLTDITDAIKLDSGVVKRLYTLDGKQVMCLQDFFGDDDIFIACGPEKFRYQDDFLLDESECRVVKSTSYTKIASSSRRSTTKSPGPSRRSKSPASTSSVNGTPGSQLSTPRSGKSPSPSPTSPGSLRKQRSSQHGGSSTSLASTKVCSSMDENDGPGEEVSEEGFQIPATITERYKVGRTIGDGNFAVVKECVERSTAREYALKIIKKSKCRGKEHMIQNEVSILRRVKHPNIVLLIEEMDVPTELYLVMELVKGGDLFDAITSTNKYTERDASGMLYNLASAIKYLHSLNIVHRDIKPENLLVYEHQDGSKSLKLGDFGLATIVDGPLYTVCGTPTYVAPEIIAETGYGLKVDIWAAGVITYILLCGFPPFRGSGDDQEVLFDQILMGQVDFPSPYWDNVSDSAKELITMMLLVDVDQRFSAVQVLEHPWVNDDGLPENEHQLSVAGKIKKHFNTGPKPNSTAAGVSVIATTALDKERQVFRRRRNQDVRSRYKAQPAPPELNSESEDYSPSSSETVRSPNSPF", "settings": "kinase DCAMKL1 (Entrez DCLK1)", "how_it_was_run": "as §1"}, "[9]": {"target": "T9, 384 kinases from the human genome (Homo sapiens, UniProt Q9UKI8)", "T9 construct": "purchased Eurofin/DiscoverX", "settings": "kinase TLK1 (Entrez TLK1)", "how_it_was_run": "as §1"}, "[10]": {"target": "T10, 384 kinases from the human genome (Homo sapiens, UniProt P42679)", "T10 construct": "purchased Eurofin/DiscoverX", "settings": "kinase CTK (Entrez MATK)", "how_it_was_run": "as §1"}, "[11]": {"target": "T11, 384 kinases from the human genome (Homo sapiens, UniProt Q00526)", "T11 construct": "purchased Eurofin/DiscoverX", "settings": "kinase CDK3 (Entrez CDK3)", "how_it_was_run": "as §1"}, "[12]": {"target": "T12, 384 kinases from the human genome (Homo sapiens, UniProt Q16566)", "T12 construct": "purchased Eurofin/DiscoverX", "settings": "kinase CAMK4 (Entrez CAMK4)", "how_it_was_run": "as §1"}, "[13]": {"target": "T13, 384 kinases from the human genome (Homo sapiens, UniProt P31152)", "T13 construct": "purchased Eurofin/DiscoverX", "settings": "kinase ERK4 (Entrez MAPK4)", "how_it_was_run": "as §1"}, "[14]": {"target": "T14, 384 kinases from the human genome (Homo sapiens, UniProt P80192)", "T14 construct": "purchased Eurofin/DiscoverX", "settings": "kinase MLK1 (Entrez MAP3K9)", "how_it_was_run": "as §1"}, "[15]": {"target": "T15, 384 kinases from the human genome (Homo sapiens, UniProt Q8NE63)", "T15 construct": "purchased Eurofin/DiscoverX", "T15 sequence (Q8NE63 whole entry)": "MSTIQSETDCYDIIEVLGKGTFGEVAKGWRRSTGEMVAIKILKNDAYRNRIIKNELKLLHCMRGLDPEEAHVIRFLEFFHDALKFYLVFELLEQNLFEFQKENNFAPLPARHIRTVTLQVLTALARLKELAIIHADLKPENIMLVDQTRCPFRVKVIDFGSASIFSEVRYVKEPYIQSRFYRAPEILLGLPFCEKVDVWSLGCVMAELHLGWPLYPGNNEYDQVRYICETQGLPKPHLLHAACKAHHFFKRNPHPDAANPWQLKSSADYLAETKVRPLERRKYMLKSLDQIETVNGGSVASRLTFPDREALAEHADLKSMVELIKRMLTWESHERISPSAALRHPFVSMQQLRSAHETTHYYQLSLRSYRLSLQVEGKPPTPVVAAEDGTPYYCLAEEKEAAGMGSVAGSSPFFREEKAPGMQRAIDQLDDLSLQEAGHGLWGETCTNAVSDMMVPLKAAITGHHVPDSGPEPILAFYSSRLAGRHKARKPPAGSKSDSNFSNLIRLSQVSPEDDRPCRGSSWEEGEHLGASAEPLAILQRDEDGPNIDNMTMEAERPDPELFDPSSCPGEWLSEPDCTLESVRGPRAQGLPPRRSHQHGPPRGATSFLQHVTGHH", "settings": "kinase HIPK4 (Entrez HIPK4)", "how_it_was_run": "as §1"}, "[16]": {"target": "T16, 384 kinases from the human genome (Homo sapiens, UniProt Q9P289)", "T16 construct": "purchased Eurofin/DiscoverX", "settings": "kinase MST4 (Entrez MST4)", "how_it_was_run": "as §1"}, "[17]": {"target": "T17, 384 kinases from the human genome (Homo sapiens, UniProt P78362)", "T17 construct": "purchased Eurofin/DiscoverX", "settings": "kinase SRPK2 (Entrez SRPK2)", "how_it_was_run": "as §1"}, "[18]": {"target": "T18, 384 kinases from the human genome (Homo sapiens, UniProt Q9Y6E0)", "T18 construct": "purchased Eurofin/DiscoverX", "settings": "kinase MST3 (Entrez STK24)", "how_it_was_run": "as §1"}, "[19]": {"target": "T19, 384 kinases from the human genome (Homo sapiens, UniProt Q13131)", "T19 construct": "purchased Eurofin/DiscoverX", "settings": "kinase AMPK-alpha1 (Entrez PRKAA1)", "how_it_was_run": "as §1"}, "[20]": {"target": "T20, 384 kinases from the human genome (Homo sapiens, UniProt Q9Y2H1)", "T20 construct": "purchased Eurofin/DiscoverX", "settings": "kinase NDR2 (Entrez STK38L)", "how_it_was_run": "as §1"}, "[21]": {"target": "T21, 384 kinases from the human genome (Homo sapiens, UniProt Q56UN5)", "T21 construct": "purchased Eurofin/DiscoverX", "settings": "kinase YSK4 (Entrez MAP3K19)", "how_it_was_run": "as §1"}, "[22]": {"target": "T22, 384 kinases from the human genome (Homo sapiens, UniProt Q13555)", "T22 construct": "purchased Eurofin/DiscoverX", "settings": "kinase CAMK2G (Entrez CAMK2G)", "how_it_was_run": "as §1"}, "[23]": {"target": "T23, 384 kinases from the human genome (Homo sapiens, UniProt Q8TDX7)", "T23 construct": "purchased Eurofin/DiscoverX", "settings": "kinase NEK7 (Entrez NEK7)", "how_it_was_run": "as §1"}, "[24]": {"target": "T24, 384 kinases from the human genome (Homo sapiens, UniProt Q9HBH9)", "T24 construct": "purchased Eurofin/DiscoverX", "settings": "kinase MKNK2 (Entrez MKNK2)", "how_it_was_run": "as §1"}, "[25]": {"target": "T25, 384 kinases from the human genome (Homo sapiens, UniProt P22694)", "T25 construct": "purchased Eurofin/DiscoverX", "settings": "kinase PKAC-beta (Entrez PRKACB)", "how_it_was_run": "as §1"}, "[26]": {"target": "T26, 384 kinases from the human genome (Homo sapiens, UniProt O96017)", "T26 construct": "purchased Eurofin/DiscoverX", "T26 sequence (O96017 whole entry)": "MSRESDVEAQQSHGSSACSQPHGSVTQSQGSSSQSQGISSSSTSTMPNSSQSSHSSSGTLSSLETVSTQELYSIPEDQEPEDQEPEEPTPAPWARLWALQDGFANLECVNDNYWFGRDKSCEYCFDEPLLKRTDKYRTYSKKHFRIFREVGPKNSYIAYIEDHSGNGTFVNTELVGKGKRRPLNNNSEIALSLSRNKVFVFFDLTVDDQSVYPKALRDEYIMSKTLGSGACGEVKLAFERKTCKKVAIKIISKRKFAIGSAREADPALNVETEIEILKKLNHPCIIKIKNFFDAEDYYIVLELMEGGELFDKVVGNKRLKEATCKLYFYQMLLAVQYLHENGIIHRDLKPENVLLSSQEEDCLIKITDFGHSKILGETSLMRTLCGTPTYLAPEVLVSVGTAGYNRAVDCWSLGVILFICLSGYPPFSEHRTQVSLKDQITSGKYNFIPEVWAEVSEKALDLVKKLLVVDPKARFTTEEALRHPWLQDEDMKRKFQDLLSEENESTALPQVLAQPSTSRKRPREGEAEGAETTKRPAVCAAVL", "settings": "kinase CHEK2 (Entrez CHEK2)", "how_it_was_run": "as §1"}}}
{"smiles": "CC(C)C(=O)N1CCN(c2ccc(NC(=O)c3cc4ccccc4o3)cc2Cl)CC1", "note": "[Compound 21]", "values": [{"measurement": "Percent Control", "setting": "[1]", "value": 95, "unit": "%"}, {"measurement": "Percent Control", "setting": "[2]", "value": 92, "unit": "%"}, {"measurement": "Percent Control", "setting": "[3]", "value": 90, "unit": "%"}, {"measurement": "Percent Control", "setting": "[4]", "value": 93, "unit": "%"}, {"measurement": "Percent Control", "setting": "[5]", "value": 90, "unit": "%"}, {"measurement": "Percent Control", "setting": "[6]", "value": 81, "unit": "%"}, {"measurement": "Percent Control", "setting": "[7]", "value": 83, "unit": "%"}, {"measurement": "Percent Control", "setting": "[8]", "value": 76, "unit": "%"}, {"measurement": "Percent Control", "setting": "[9]", "value": 55, "unit": "%"}, {"measurement": "Percent Control", "setting": "[10]", "value": 95, "unit": "%"}, {"measurement": "Percent Control", "setting": "[11]", "value": 99, "unit": "%"}, {"measurement": "Percent Control", "setting": "[12]", "value": 100, "unit": "%"}, {"measurement": "Percent Control", "setting": "[13]", "value": 100, "unit": "%"}, {"measurement": "Percent Control", "setting": "[14]", "value": 96, "unit": "%"}, {"measurement": "Percent Control", "setting": "[15]", "value": 100, "unit": "%"}, {"measurement": "Percent Control", "setting": "[16]", "value": 100, "unit": "%"}, {"measurement": "Percent Control", "setting": "[17]", "value": 80, "unit": "%"}, {"measurement": "Percent Control", "setting": "[18]", "value": 84, "unit": "%"}, {"measurement": "Percent Control", "setting": "[19]", "value": 99, "unit": "%"}, {"measurement": "Percent Control", "setting": "[20]", "value": 77, "unit": "%"}, {"measurement": "Percent Control", "setting": "[21]", "value": 98, "unit": "%"}, {"measurement": "Percent Control", "setting": "[22]", "value": 98, "unit": "%"}, {"measurement": "Percent Control", "setting": "[23]", "value": 100, "unit": "%"}, {"measurement": "Percent Control", "setting": "[24]", "value": 97, "unit": "%"}, {"measurement": "Percent Control", "setting": "[25]", "value": 93, "unit": "%"}, {"measurement": "Percent Control", "setting": "[26]", "value": 100, "unit": "%"}]}
